From paper PMC2628613 (Diabetes, 2009)

How the values were obtained:
PBMCs = assay type: cell-based, human
purified HLA-A2 = system: purified HLA-A2; design: species or system human; settings: >50, 20–50, <20% binding at 10^−6 mol/l = high, intermediate, low binders

Substance	Frequencies of recognition, Control subjects (PBMCs)	Frequencies of recognition, Patients (PBMCs)	Responses (stimulation score), Control subjects (PBMCs)	Responses (stimulation score), Patients (PBMCs)	Binding to HLA-A2 (in words) (purified HLA-A2)	Frequencies of recognition, C (PBMCs)	Frequencies of recognition, D (PBMCs)	Frequencies of recognition, L (PBMCs)	Frequencies of recognition, R (PBMCs)	Recognized in % of patients (PBMCs) [%]	Recognized in % of recent-onset patients (PBMCs)	Responses (stimulation score), C (PBMCs)	Responses (stimulation score), L (PBMCs)	Responses (stimulation score), R (PBMCs)	Responses (stimulation score), D (PBMCs)
AAVDLSHFL [Nef 83–91, reference compound]	0/4	0/12	0 (0–5)	3 (0–20)											
ALWGPDPAAA [15–24]	0/6	8/17	0 (0–0)	12.2 (0–52.8)	high binders	0/4	0/2	1/4	7/13	> 40	> 50%	0 (0–0)	12.8 (2.4–32.2)	8.7 (0–52.8)	
ELRSRYWAI [NP 380–388, reference compound]	2/7	7/13	5 (2–131)	8 (0–119)											
EWRFDSRLA [Nef 182–189, reference compound]	0/3	0/8	0 (0–0)	1 (0–35)											
Peptide 1–8: human preproinsulin leader sequence peptide, residues 1–8, MALWMRLL					no significant binding										
RLLPLLALL [6–14]	0/6	5/18	4.7 (3.9–7.2)	30.6 (7.8–144)	high binders	0/4	0/2	1/4	4/14			4.7 (3.9–7.2)	28.9 (21.1–51.1)	30.6 (7.8–144)	
RLLPLLALLAL [6–16]	0/12	9/20	0 (0–9.5)	7.3 (0–111.7)	high binders	0/8	0/4	2/4	7/16	> 40	at least 30%	0 (0–9.5)	12.2 (10–54.5)	5 (0–111.7)	0 (0–0)
